Source: US20020042072A1, “Method for monitoring the effect of cancer therapies” (priority 2000, published 2002)
Where two headings read alike, the source gives them in different places.

Legend:
A431 xenograft = assay: Tumour growth of subcutaneous A431 xenograft; type: in vivo, nu/nu mice; details: for % reduction of tumour growth: A431 xenograft; for tumor growth in vivo: oral administration, nu/nu mice xenografted with A43 1 or KB tumor cells
Method: (§1) Human tumour cells KB (CCL-17) and A43 1 (CRL-1555) were obtained from ATCC and cultured in DMEM medium supplemented with 10% fetal calf serum, 10 mM HEPES, 50 μmol/l beta-mercaptoethanol and a standard complement of antibiotics.
(§2) To establish subcutaneous tumours in nu/nu mice (5-6 week old female animals, supplied by Harlan, The Netherlands), cells were trypsinised, washed and suspended in phosphate-buffered physiological solution+10% fetal calf serum at 10^7 cells/ml. 100 μl cell suspension containing 10^6 cells were then injected subcutaneously into the right flank of the mice (one site per mouse). When tumours were well established and had reached diameters of more than 5-9 mm, mice were randomly distributed between treatment and the vehicle control group (7-10 days after cell injection). Test compounds (1 and 5 mg/ml) were dissolved and administered intragastically by gavage needle. Administration was once daily oral dosing in a volume of 10 ml/kg body weight. Tumour diameters were measured three times weekly with a caliper. Volumes (in mm^3) were calculated according to the formula: tumour volume=length*diameter^2*π/6.

[1] = system: telomerase activity in A431 xenograft; assay: Telomerase activity (TRAPeze ELISA) in A431 xenograft tumour material; type: in vivo, nu/nu mice
Method: as §1, §2
(§3) For measuring telomerase activity, the Oncor®, TRAPeze™ Elisa Telomerase Detection Kit was used. Tumour material surgically removed from mice was cleaned and frozen at −70° C. […]

[2] = system: telomerase activity in KB xenograft; assay: Telomerase activity (TRAPeze ELISA) in KB xenograft tumour material; type: in vivo, nu/nu mice; details: 50 mg/kg once daily oral
Method: as §1, §2, §3

KB xenograft = assay: Tumour growth of subcutaneous KB xenograft; type: in vivo, nu/nu mice; details: 50 mg/kg once daily oral
Method: as §1, §2

NTERA-2 = details: NTERA-2, differentiation-sensitive clones; cited from earlier work
NB-4 = details: NB-4, differentiation-sensitive clones; cited from earlier work
MDA-MB23 1 = details: cited from earlier work
MCF-7 = details: cited from earlier work

With CN1CCC(Nc2ncc3ncnc(Nc4ccc(F)c(Cl)c4)c3n2)CC1 [Inhibitor 1, 4-((3-chloro-4-fluoro-phenyl)amino)-6-(1-methyl-4-piperidinyl-amino)-pyrimido(5,4d)pyrimidine] the “% reduction of tumour growth” value (A431 xenograft; 50 mg/kg once daily oral) was 79%, the “tumor growth in vivo” value (A431 xenograft) was “inhibited tumor growth in vivo” and the “% reduction of telomerase activity” value ([1]; 50 mg/kg once daily oral) was 100%. The “% reduction of telomerase activity” value [2] was 6% and the “% reduction of tumour growth” value (KB xenograft) was 51%.
In the case of CC1(N)CCN(c2ncc3ncnc(Nc4ccc(F)c(Cl)c4)c3n2)CC1 [Inhibitor 2, 4-((3-chloro-4-fluoro-phenyl)amino)-6-(4-amino-4-methyl-1-piperidinyl)-pyrimido(5,4d)pyrimidine], the “% reduction of tumour growth” value (A431 xenograft; 10 mg/kg once daily oral) was 90%, the “tumor growth in vivo” value (A431 xenograft) was “inhibited tumor growth in vivo” and the “% reduction of telomerase activity” value ([1]; 10 mg/kg once daily oral) was 96%.
For CC1=C(/C=C/C(C)=C/C=C/C(C)=C/C(=O)O)C(C)(C)CCC1 [all-trans-retinoic acid], the telomerase activity (NTERA-2) is listed as “decline in telomerase activity” and the telomerase activity (NB-4) is listed as “decline in telomerase activity”.
For CC(=O)NCCCCCCNC(C)=O [hexamethylene bisacetamide], the telomerase activity (NTERA-2) is listed as “decline in telomerase activity” and the telomerase activity (NB-4) is listed as “decline in telomerase activity”.
In the case of CC/C(=C(\c1ccccc1)c1ccc(OCCN(C)C)cc1)c1ccccc1 [tamoxifen], the telomerase activity (MDA-MB23 1; MDA-MB23 1, 10^−8M) is listed as “repressive effect”, the telomerase activity (MDA-MB23 1; MDA-MB23 1, higher (10^−7 and 10^−6M) or lower (10^−9M) concentrations) is listed as “no effect” and the telomerase activity (MCF-7; MCF-7, 10^−8M) is listed as “repressive effect”. The telomerase activity (MCF-7; MCF-7, higher (10^−7 and 10^−6M) or lower (10^−9M) concentrations) was “no effect”.
